# Literature values, collected in paper PMC3580849 (Bioorganic & medicinal chemistry letters, 2011).
# System: Human M1 fibroblasts
# Conditions: positive control, previously determined
substance,measurement,value
"H-KDLLEQKRAAVDTYC-NH2 [65–79*0401, H-Lys-Asp-Leu-Leu-Glu-Gln-Lys-Arg-Ala-Ala-Val-Asp-Thr-Tyr-Cys-NH2]",optimal concentration for activation of NO production,50 µM
